Results from patent US5849797A, “D-β-lysylmethanediamine derivatives and preparation thereof” (Zaidan Hojin Biseibutsu Kagaku Kenkyu Kai, priority 1994, dated 1998).
Converted amounts (≈) assume the structure as drawn.

How the values were obtained:
B. subtilis PC1219 = experiment: Antibacterial activity, MIC by serial dilution method; type: cell-based; settings: Bacillus subtilis, 0.5% peptone agar, 37° C., 18 hours
[1] = system: Klebsiella pneumoniae PCI602; experiment: as above; type: cell-based; settings: 0.5% peptone agar, 37° C., 18 hours
S. aureus Smith = experiment: as above; type: cell-based; settings: Staphylococcus aureus, 0.5% peptone agar, 37° C., 18 hours
[2] = system: Pseudomonas aeruginosa A3; experiment: as above; type: cell-based; settings: 0.5% peptone agar, 37° C., 18 hours
E. coli K-12 = experiment: as above; type: cell-based; settings: Escherichia coli, K12, 0.5% peptone agar, 37° C., 18 hours
B. cereus ATCC10702 = experiment: as above; type: cell-based; settings: Bacillus cereus, 0.5% peptone agar, 37° C., 18 hours
[3] = system: Shigella dysenteriae JS11910; experiment: as above; type: cell-based; settings: JS11910, 18 h
Serratia marcescens = experiment: as above; type: cell-based; settings: 0.5% peptone agar, 37° C., 18 hours
Bacillus anthracis = experiment: microbe, parasite or virus in culture; type: cell-based; settings: 18 h
P. rettgeri GN466 = experiment: Antibacterial activity, MIC by serial dilution method; type: cell-based; settings: Providencia rettgeri, 0.5% peptone agar, 37° C., 18 hours
MT-4 cells = experiment: Cytotoxicity to MT-4 cells; type: cell-based, human; design: key: -: That the cytotoxicity was not observed; settings: absence of HIV
Procedure: Furthermore, cytotoxicity of the tested compound to the MT-4 cells was estimated. This was done by incubating the MT-4 cells at varying concentrations of the tested compound and in the absence of HIV but in the same manner of incubation and under the same conditions of incubation of MT-4 cells as those employed in the above-mentioned test procedures of assaying the activity of the tested compound to inhibit the infection of T-cells with HIV. That the cytotoxicity was not observed is represented by the symbol "-" in Table 2 below.

Escherichia coli NIHJ = experiment: Antibacterial activity, MIC by serial dilution method; type: cell-based; settings: 0.5% peptone agar, 37° C., 18 hours
[4] = system: Providencia rettgeri GN311; experiment: as above; type: cell-based; settings: 0.5% peptone agar, 37° C., 18 hours
HIV (HTLV-IIIB strain) = experiment: microbe, parasite or virus in culture; type: cell-based; settings: Human immunodeficiency virus 1, IIIB, MT4, 96 h, MT-4 cells, 4 days, 90 at 0 μg/ml, read-out: Rate (%) of presence of HIV antigen-positive cells; for activity at 0.1 µg/mL: 0.1 μg/ml; for activity at 1 µg/mL: 1 μg/ml; for activity at 10 µg/mL: 10 μg/ml
Proteus vulgaris OX19 = experiment: Antibacterial activity, MIC by serial dilution method; type: cell-based; settings: 0.5% peptone agar, 37° C., 18 hours
P. mirabilis IFM OM-9 = experiment: as above; type: cell-based; settings: Proteus mirabilis, IFMOM9, 0.5% peptone agar, 37° C., 18 hours
S. flexnelli 4b JS1811 = experiment: as above; type: cell-based; settings: 0.5% peptone agar, 37° C., 18 hours
Procedure: The minimum inhibitory concentrations (MIC.) of (R)-3,6-diamino-N-(2-aminoethyl)hexanamide of the formula (Ia) and (R)-3,6-diamino-N-(3-aminopropyl)hexanamide of the formula (Ib) against the growth of various bacteria were determined by a serial dilution method on a 0.5% peptone agar medium (incubated at 37° C. for 18 hours). The results obtained are shown in Table 1 below, in comparison with the MIC. of D-β-lysylmethanediamine (Bellenamine).

B. subtilis NRRL B-558 = experiment: as above; type: cell-based; settings: Bacillus subtilis, NRRLB558, 0.5% peptone agar, 37° C., 18 hours
[5] = system: Staphylococcus aureus FDA209P; experiment: as above; type: cell-based; settings: 0.5% peptone agar, 37° C., 18 hours
Micrococcus luteus FDA16 = experiment: as above; type: cell-based; settings: 0.5% peptone agar, 37° C., 18 hours
[6] = system: mouse leukemia P388 cells; experiment: Antitumor activity, growth inhibition of mouse leukemia P388 cells; type: cell-based
Procedure: In this way, such concentration of the tested compound which can inhibit the growth of the P388 cells by 50%, that is, the IC50 -value of the tested compound against the P388 cells was estimated. For comparison purpose, Bellenamine was tested in the same manner as above.

mice = experiment: Acute toxicity by intravenous injection to mice; type: in vivo; settings: 250 mg/kg
Solubility = type: physicochemical; settings: in water

| SMILES | MIC (B. subtilis PC1219) | MIC [1] | MIC (S. aureus Smith) | MIC [2] | MIC (E. coli K-12) | MIC (B. cereus ATCC10702) | MIC [3] | MIC (Serratia marcescens) | MIC (Bacillus anthracis) | MIC (P. rettgeri GN466) | Cytotoxicity (given in brackets) (MT-4 cells; 0.1 μg/ml) | Cytotoxicity (given in brackets) (MT-4 cells; 1 μg/ml) | Cytotoxicity (given in brackets) (MT-4 cells; 10 μg/ml) | MIC (Escherichia coli NIHJ) | MIC [4] | activity at 0.1 µg/mL (HIV (HTLV-IIIB strain)) | activity at 1 µg/mL (HIV (HTLV-IIIB strain)) | activity at 10 µg/mL (HIV (HTLV-IIIB strain)) | MIC (Proteus vulgaris OX19) | MIC (P. mirabilis IFM OM-9) | also measured |
| --- | --- | --- | --- | --- | --- | --- | --- | --- | --- | --- | --- | --- | --- | --- | --- | --- | --- | --- | --- | --- | --- |
| NCCC[C@@H](N)CC(=O)NCN [Bellenamine, D-β-lysylmethanediamine] | 12.5 µg/mL (≈ 71.7 µM) | > 200 µg/mL | 6.25 µg/mL (≈ 35.9 µM) | 200 µg/mL (≈ 1150 µM) | > 200 µg/mL | 50 µg/mL (≈ 287 µM) | > 200 µg/mL | 200 µg/mL (≈ 1150 µM) | 100 µg/mL (≈ 574 µM) | 100 µg/mL (≈ 574 µM) | - | - | - | 200 µg/mL (≈ 1150 µM) | 50 µg/mL (≈ 287 µM) | 50% | 5% | 10% | > 200 µg/mL | 200 µg/mL (≈ 1150 µM) | MIC (S. flexnelli 4b JS1811): > 200 µg/mL; MIC (B. subtilis NRRL B-558): 12.5 µg/mL (≈ 71.7 µM); MIC [5]: 50 µg/mL (≈ 287 µM); MIC (Micrococcus luteus FDA16): > 200 µg/mL; IC50 [6]: 0.36 µg/mL (≈ 2.07 µM) |
| NCCC[C@@H](N)CC(=O)NCCN [Compound (Ia), (R)-3,6-diamino-N-(2-aminoethyl)hexanamide] | 25 µg/mL (≈ 133 µM) | 200 µg/mL (≈ 1060 µM) | 6.25 µg/mL (≈ 33.2 µM) | 100 µg/mL (≈ 531 µM) | 200 µg/mL (≈ 1060 µM) | 50 µg/mL (≈ 266 µM) | 200 µg/mL (≈ 1060 µM) | 100 µg/mL (≈ 531 µM) | 100 µg/mL (≈ 531 µM) | 50 µg/mL (≈ 266 µM) | - | - | - | 100 µg/mL (≈ 531 µM) | 25 µg/mL (≈ 133 µM) | 90% | 80% | 30% | 200 µg/mL (≈ 1060 µM) | 25 µg/mL (≈ 133 µM) | Acute toxicity (death of mice) (mice): did not cause death of mice; Solubility (Solubility): highly soluble in water; MIC (S. flexnelli 4b JS1811): 100 µg/mL (≈ 531 µM); MIC (B. subtilis NRRL B-558): 25 µg/mL (≈ 133 µM); MIC [5]: 25 µg/mL (≈ 133 µM); MIC (Micrococcus luteus FDA16): > 200 µg/mL; IC50 [6]: 0.012 µg/mL (≈ 0.0637 µM) |
| NCCCNC(=O)C[C@H](N)CCCN [Compound (Ib), (R)-3,6-diamino-N-(3-aminopropyl)hexanamide] | 100 µg/mL (≈ 494 µM) | > 200 µg/mL | 50 µg/mL (≈ 247 µM) | 200 µg/mL (≈ 989 µM) | 200 µg/mL (≈ 989 µM) | 200 µg/mL (≈ 989 µM) | 200 µg/mL (≈ 989 µM) | 200 µg/mL (≈ 989 µM) | 200 µg/mL (≈ 989 µM) | 50 µg/mL (≈ 247 µM) | - | - | - | 200 µg/mL (≈ 989 µM) | 100 µg/mL (≈ 494 µM) | 80% | 10% | 5% | 200 µg/mL (≈ 989 µM) | 50 µg/mL (≈ 247 µM) | Acute toxicity (death of mice) (mice): did not cause death of mice; Solubility (Solubility): highly soluble in water; MIC (S. flexnelli 4b JS1811): 200 µg/mL (≈ 989 µM); MIC (B. subtilis NRRL B-558): 100 µg/mL (≈ 494 µM); MIC [5]: 200 µg/mL (≈ 989 µM); MIC (Micrococcus luteus FDA16): > 200 µg/mL; IC50 [6]: 0.028 µg/mL (≈ 0.138 µM) |
